Patent US20240327463A1, “ANTIBACTERIAL PRODUCTS” (priority 2017, published 2024)
In brackets after ≈: the same amount, converted by molar mass. Where two headings read alike, the source gives them in different places. Bridge positions count the residues as written; N and C are the ends. Square brackets hold non-standard residues; d marks the D form. Peptide text beside a SMILES is read from it. dNMeF = CN[C@H](Cc1ccccc1)C(=O)O

Experiments:
MRSA ATCC 700699 = test: microbe, parasite or virus in culture
Experimental: (§1) For MIC testing all peptides were dissolved in DMSO (according to the method of L. L. Ling, et al., Nature 2015, 517, 455-459). Bacteria were grown on Mueller Hinton broth (oxoid). All incubations were at 37° C. Dilutions were carried out using Mueller Hinton. 100 μl of autoclaved Mueller Hinton broth was added to wells 2-12 on a 96-well plate. 200 μl of the peptide was added to well one at a concentration of 512 μg/ml. 100 μl of peptide in well one was taken up and pipetted into well two. The mixture was then mixed via pipetting before 100 μl was taken up and pipetted into well three. This process was repeated up to well 11. […] This was repeated three times. The 96-well plates were then incubated for 24 hours. The MIC was determined to be the lowest concentration at which there was no growth visible.

[1] = system: Staphylococcus aureus ATCC 29213; test: microbe, parasite or virus in culture
Experimental: as §1

MRSA DM21455 (eye) = test: microbe, parasite or virus in culture
Experimental: as §1

MRSA DR 42412 (sputum) = test: microbe, parasite or virus in culture
Experimental: as §1

VRE ATCC 29212 = test: microbe, parasite or virus in culture
Experimental: as §1

VRE ATCC 700802 = test: microbe, parasite or virus in culture
Experimental: as §1

M. smegmatis ATCC 607 = test: microbe, parasite or virus in culture
Experimental: as §1

MRSA ATCC 33591 = system: MRSA ATCC 33591
Experimental: as §1

[2] = system: Staphylococcus saprophyticus ATCC 15305; assay type: cell-based; conditions: ATCC 15305
Experimental: (§2) Bacteria were grown on Mueller Hinton broth (oxoid). All incubations were at 37° C. Dilutions were carried out using Mueller Hinton. […] This process was repeated up to well 11. […] This was repeated three times. […] Results are tabulated in the Examples.

[3] = system: Staphylococcus saprophyticus ATCC BAA 750; assay type: cell-based; conditions: ATCC BAA 750
Experimental: as §2

SE12228 = assay type: cell-based
Experimental: as §2

[4] = system: Staphylococcus saprophyticus ATCC 49453; assay type: cell-based; conditions: ATCC 49453
Experimental: as §2

[5] = system: Bacillus Subtilis ATCC 6633; assay type: cell-based
Experimental: as §2

[6] = system: Staphylococcus saprophyticus ATCC 49907; assay type: cell-based; conditions: ATCC 49907
Experimental: as §2

[7] = system: Bacillus Cereus ATCC 11788; assay type: cell-based
Experimental: as §2

VRE 1001 = assay type: cell-based, Enterococcus faecalis
Experimental: as §2

VRE 1004 = assay type: cell-based, Enterococcus faecalis
Experimental: as §2

VRE 1008 = assay type: cell-based, Enterococcus faecalis
Experimental: as §2

VRE 1002 = assay type: cell-based, Enterococcus faecalis
Experimental: as §2

MRSA 1003 = assay type: cell-based, Staphylococcus aureus
Experimental: as §2

S. aureus ATCC 29213 = test: Mice-eye model of S. aureus keratitis; assay type: in vivo; conditions: for mean corneal thickness: 0.3% topical, baseline 93.8±2.9 μm
Excerpt: The in vivo efficacy of Compound 26 in the mice-eye model of S. aureus keratitis was examined. S. aureus is one of the major etiological agents for bacterial keratitis and the toxic secretions produced by this microorganism have been implicated in corneal melt, leading to significant morbidity and vision loss. […] A total of 8 doses were applied and the progression of the infection was monitored by slit lamp examination, anterior segment optical coherent tomography (AS-OCT) and microbiological enumeration of the bacterial bioburden. Mice cornea treated with PBS had severe clinical presentation indicated by chemosis, significant presence of hypopyon like materials and corneal infiltrates (FIG. 4).

[8] = Staphylococcus aureus ATCC 29213, Table 4B

SMILES	MBC (MRSA ATCC 700699; ATCC 700699)	MIC (MRSA ATCC 700699; ATCC 700699)	MBC ([1]; ATCC 29213)	MIC ([1]; ATCC 29213)	MBC (MRSA DM21455 (eye); DM21455 (eye))	MIC (MRSA DM21455 (eye); DM21455 (eye))	MBC (MRSA DR 42412 (sputum); DR 42412 (sputum))	MIC (MRSA DR 42412 (sputum); DR 42412 (sputum))	MIC (VRE ATCC 29212; ATCC 29212)	MIC (VRE ATCC 700802; ATCC 700802)	MIC (M. smegmatis ATCC 607; ATCC 607)	MIC (MRSA*) (MRSA ATCC 33591; ATCC 33591)	other results
CC[C@@H](C)[C@@H](NC(=O)[C@@H](CCC(N)=O)NC(=O)[C@H](CO)NC(=O)[C@@H](NC(=O)[C@@H](Cc1ccccc1)NC)[C@@H](C)CC)C(=O)N[C@H](C(=O)N[C@@H](CO)C(=O)N[C@H]1C(=O)N[C@@H](C)C(=O)N[C@@H]([C@@H](C)CC)C(=O)N[C@@H]([C@@H](C)CC)C(=O)O[C@H]1C)[C@@H](C)CC [Compound 18, Ile10-teixobactin]	1 µg/mL (≈ 0.832 µM)	0.25 µg/mL (≈ 0.208 µM)	0.125 µg/mL (≈ 0.104 µM)	≤0.0625 µg/mL	0.125 µg/mL (≈ 0.104 µM)	≤0.0625 µg/mL	≤0.0625 µg/mL	≤0.0625 µg/mL	≤0.0625 µg/mL	≤0.0625 µg/mL	0.5 µg/mL (≈ 0.416 µM)	0.25 µg/mL (≈ 0.208 µM)	–
CC[C@@H](C)[C@@H](NC(=O)[C@@H](CCC(N)=O)NC(=O)[C@H](CO)NC(=O)[C@@H](NC(=O)[C@@H](Cc1ccccc1)NC)[C@@H](C)CC)C(=O)N[C@H](C(=O)N[C@@H](CO)C(=O)N[C@H]1C(=O)N[C@@H](C)C(=O)N[C@@H](C(C)C)C(=O)N[C@@H]([C@@H](C)CC)C(=O)O[C@H]1C)[C@@H](C)CC [Compound 17]	4 µg/mL (≈ 3.37 µM)	1 µg/mL (≈ 0.842 µM)	1 µg/mL (≈ 0.842 µM)	0.25 µg/mL (≈ 0.211 µM)	2 µg/mL (≈ 1.68 µM)	0.25 µg/mL (≈ 0.211 µM)	4 µg/mL (≈ 3.37 µM)	0.5 µg/mL (≈ 0.421 µM)	0.5 µg/mL (≈ 0.421 µM)	0.5 µg/mL (≈ 0.421 µM)	1 µg/mL (≈ 0.842 µM)	0.5 µg/mL (≈ 0.421 µM)	–
CC[C@@H](C)[C@@H](NC(=O)[C@@H](CCC(N)=O)NC(=O)[C@H](CO)NC(=O)[C@@H](NC(=O)[C@@H](Cc1ccccc1)NC)[C@@H](C)CC)C(=O)N[C@H](C(=O)N[C@@H](CO)C(=O)N[C@H]1C(=O)N[C@@H](C)C(=O)N[C@@H](CC(C)C)C(=O)N[C@@H]([C@@H](C)CC)C(=O)O[C@H]1C)[C@@H](C)CC [Compound 19, Leu10-teixobactin]	2 µg/mL (≈ 1.66 µM)	0.25 µg/mL (≈ 0.208 µM)	0.125 µg/mL (≈ 0.104 µM)	≤0.0625 µg/mL	≤0.0625 µg/mL	≤0.0625 µg/mL	≤0.0625 µg/mL	≤0.0625 µg/mL	0.25 µg/mL (≈ 0.208 µM)	0.25 µg/mL (≈ 0.208 µM)	1 µg/mL (≈ 0.832 µM)	0.25 µg/mL (≈ 0.208 µM)	–
CCC(C)[C@@H]1NC(=O)[C@H](C)NC(=O)[C@H](NC(=O)[C@H](CO)NC(=O)[C@@H](NC(=O)[C@H](NC(=O)[C@@H](CCCNC(=N)N)NC(=O)[C@H](CO)NC(=O)[C@@H](NC(=O)[C@@H](Cc2ccccc2)NC)[C@@H](C)CC)[C@H](C)CC)[C@@H](C)CC)[C@H](C)OC(=O)[C@H]([C@@H](C)CC)NC1=O (stereo partly drawn) [Compound 33, D-Arg4-Ile10-teixobactin]	–	0.25 µg/mL (≈ 0.203 µM)	–	0.0625 µg/mL (≈ 0.0508 µM)	–	0.03125 µg/mL (≈ 0.0254 µM)	–	<0.0625 µg/mL	0.25 µg/mL (≈ 0.203 µM)	0.25 µg/mL (≈ 0.203 µM)	–	–	MIC [2]: <0.0625 µg/mL; MIC [3]: <0.0625 µg/mL; MIC (SE12228): <0.0625 µg/mL; MIC [4]: <0.0625 µg/mL; MIC [5]: <0.0625 µg/mL; MIC [6]: <0.0625 µg/mL; MIC [7]: <0.0625 µg/mL; MIC (VRE 1001): 0.5 µg/mL (≈ 0.407 µM); MIC (VRE 1004): 0.5 µg/mL (≈ 0.407 µM); MIC (VRE 1008): 0.5 µg/mL (≈ 0.407 µM); MIC (VRE 1002): 1 µg/mL (≈ 0.813 µM); MIC (MRSA 1003): <0.0625 µg/mL; MIC (MRSA) (MRSA ATCC 33591; ATCC 33591): 0.125 µg/mL (≈ 0.102 µM)
CC[C@@H](C)[C@@H](NC(=O)[C@@H](CCC(N)=O)NC(=O)[C@H](CCCNC(=N)N)NC(=O)[C@@H](NC(=O)[C@@H](Cc1ccccc1)NC)[C@@H](C)CC)C(=O)N[C@H](C(=O)N[C@@H](CO)C(=O)N[C@H]1C(=O)N[C@@H](CCCNC(=N)N)C(=O)N[C@@H](CC(C)C)C(=O)N[C@@H]([C@@H](C)CC)C(=O)O[C@H]1C)[C@@H](C)CC [Compound 29, Arg3-Arg9-Leu10-teixobactin] (H-[dNMeF]IR[dQ][dI]IS[dT]RLI; ester 8-C)	–	1 µg/mL (≈ 0.738 µM)	–	1 µg/mL (≈ 0.738 µM)	–	1 µg/mL (≈ 0.738 µM)	–	0.25 µg/mL (≈ 0.184 µM)	1 µg/mL (≈ 0.738 µM)	1 µg/mL (≈ 0.738 µM)	–	–	MIC [2]: <0.0625 µg/mL; MIC [3]: <0.0625 µg/mL; MIC (SE12228): <0.0625 µg/mL; MIC [4]: <0.0625 µg/mL; MIC [5]: <0.0625 µg/mL; MIC [6]: <0.0625 µg/mL; MIC [7]: 1 µg/mL (≈ 0.738 µM); MIC (VRE 1001): 0.5 µg/mL (≈ 0.369 µM); MIC (VRE 1004): 0.5 µg/mL (≈ 0.369 µM); MIC (VRE 1008): 0.5 µg/mL (≈ 0.369 µM); MIC (VRE 1002): 1 µg/mL (≈ 0.738 µM); MIC (MRSA 1003): 2 µg/mL (≈ 1.48 µM); MIC against MRSA ATCC 33591 (MRSA ATCC 33591; MRSA ATCC 33591): 1 µg/mL (≈ 0.738 µM)
CC[C@H](C)[C@H](NC(=O)[C@@H](Cc1ccccc1)NC)C(=O)N[C@@H](CO)C(=O)N[C@H](CCC(N)=O)C(=O)N[C@@H](C(=O)N[C@H](C(=O)N[C@@H](CO)C(=O)N[C@H]1C(=O)N[C@@H](C)C(=O)N[C@@H](CCCNC(=N)N)C(=O)N[C@@H]([C@@H](C)CC)C(=O)O[C@H]1C)[C@@H](C)CC)[C@@H](C)CC [Compound 6, Arg10-teixobactin, reference compound]	–	–	–	–	–	–	–	–	–	–	–	–	MIC (MRSA ATCC 700699; MRSA 1: MRSA ATCC 700699, Mueller Hinton Broth, Table 4B): 1 µg/mL (≈ 0.804 µM); MBC (MRSA ATCC 700699; MRSA 1: MRSA ATCC 700699, Table 4B): 2 µg/mL (≈ 1.61 µM); MBC [1, 8]: 1 µg/mL (≈ 0.804 µM); MIC [1, 8]: 0.25 µg/mL (≈ 0.201 µM); MIC (MRSA DM21455 (eye); MRSA 3: MRSA DM21455 (eye), clinical isolate, Table 4B): 0.5 µg/mL (≈ 0.402 µM); MBC (MRSA DM21455 (eye); MRSA 3: MRSA DM21455 (eye), Table 4B): 1 µg/mL (≈ 0.804 µM); MBC (MRSA DR 42412 (sputum); MRSA 2: MRSA DR 42412 (sputum), Table 4B): 0.5 µg/mL (≈ 0.402 µM); MIC (VRE ATCC 29212; VRE 2: VRE ATCC 29212, Table 4B): 2 µg/mL (≈ 1.61 µM); MIC (VRE ATCC 700802; VRE 1: VRE ATCC 700802, Table 4B): 2 µg/mL (≈ 1.61 µM); MIC (M. smegmatis ATCC 607; M. smegmatis ATCC 607, Table 4B): 1 to 2 µg/mL; MIC (MRSA*) (MRSA ATCC 33591; MRSA ATCC 33591, Table 4A): 2 µg/mL (≈ 1.61 µM)
COc1c(N2C[C@@H]3CCCN[C@@H]3C2)c(F)cc2c(=O)c(C(=O)O)cn(C3CC3)c12 [moxifloxacin, reference compound]	–	–	–	–	–	–	–	–	–	–	–	–	mean corneal thickness (S. aureus ATCC 29213; 24 h post treatment): 124.2±9.4 μm; mean corneal thickness (S. aureus ATCC 29213; 48 h post treatment): 140.3±10.3 μm; mean log10 CFU/tissue (S. aureus ATCC 29213; corneal tissues harvested after 8 dosages, ± standard error of the mean): 3.7±0.24 log10 CFU/tissue
